Measurements reported in patent EP1222921B1, “Pharmaceutical compositions of tizoxanide and/or nitazoxanide” (Romark Laboratories, L.C., priority 1997, dated 1998).
Converted amounts (≈) assume the structure as drawn. “Also recorded” adds a separate entry of the source. Read-outs that look alike come from different tables or passages of the source.

Assays:
MDBKF5D2 cell monolayers [1] = experiment: Toxicity testing assay (Example III), MTS/PMS; format: cell-based
Protocol: 200µl of medium containing nitazoxanide solution at the pre-mentioned concentrations and the proper controls were introduced into two wells of a 96 well plate containing confluent MDBKFD2 cell monolayers and two wells without monolayers. […] The plate was returned to the incubator in the dark to develop for 2 hours. At 2 hours, 100 µl of each supernatant was transferred to a new microtiter plate and read in the ELISA reader at 490 nm. Results were recorded and analyzed. […] (OD medium - OD drug x 100)/(OD medium) [formula] […]

C. parvum oocysts [2] = experiment: Intact C. parvum oocyst assay (Example III), immunofluorescence; format: cell-based, Cryptosporidium parvum; details: for Parasite - Mean parasite count/field (12 fields analyzed) / %Inhib - Percent inhibitation of parasite infection: 48 hr.; for %Inhib - Percent inhibitation of parasite infection: listed as New NTZdes
Protocol: Each concentration of nitazoxanide and the media controls contained 0.025% DMSO as a constant. The experiment used a cell culture of MDBKF5D2 Cells grown in 7 mm chambers, and as Cryptosporidium parvum: GCH1 oocysts, 5 X 10^4 per well, and was conducted to compare paromomycin (positive control) against nitazoxanide (experimental drug). […] 5 x 104 C. parvum oocysts per well are incubated in the pre-mentioned concentrations of nitazoxanide at 37°C (8% CO2) on confluent MDBKF5D2 cell monolayers. The level of infection in each well was determined and computer analyzed by an immunofluorescence assay at 48 hours. […] (Medium control count - Drug test count)/(Medium control count)x 100 [formula] Conc. - µg/ml; Parasite - Mean parasite count/field (12 fields analyzed); %Inhib - Percent inhibitation of parasite infection; % Tox- Percent toxicity to cells by the drug.

C. parvum oocysts [3] = experiment: Intact C. parvum oocyst assay (Example II), immunofluorescence; format: cell-based, Cryptosporidium parvum; details: 2 mg/ml; for inhibition at 2000 µg/mL: Cryptosporidium parvum, read-out: Percent Inhibition
Protocol: Nitazoxanide was dissolved in sterile dimethylsulfoxide (DMSO) and tested against intact C. parvum oocysts infected cell monolayers at concentrations of 100 µg/ml, 10 µg/ml/l µg/ml and 0.1 µg/ml. A second trail was performed which tested nitazoxanide at the additional concentrations of 20, 2, 0.2 and 0.02 µg/ml. These concentrations were achieved by serial dilutions with complete DMEM medium to yield a final DMSO concentration of 0.5%. The medium control also contacted 0.5% DMSO.
The experiment used a cell culture of MDBKF5D2 Cells grown in 7 mm chambers, and as Cryptosporidium parvum: GCH1 oocysts, 5 X 10^4 per well, and was conducted to compare paromomycin (positive control) against nitazoxanide (experimental drug). Materials included Immune Anti-Cryptosporidium parvum Sporozoite Rabbit Serum (0.1%) and Fluorescein-Conjugated Goat Anti-Rabbit Antibody (1%).
5 x 104 C. parvum oocysts per well were incubated in nitazoxanide (100, 20, 10, 2, 1, 0.2, 0.1 and 0.02 µg/ml) at 37°C (8% CO2) on confluent MDBKF5D2 cell monolayers. The level of infection in each well was determined and analyzed by an immunofluorescence assay at 24 to 48 hours. Percent Inhibition was calculated by subtracting the mean parasite count/10 field in the drug test wells from the mean parasite count/10 fields in the medium control (no drug), dividing by the medium control count, and then multiplying by 100. (Medium control count - Drug test count)/(Medium control count)x 100 [formula]

MDBKF5D2 cell monolayers [4] = format: cell-based; details: cattle, 2 mg/ml
Protocol: The drug was incubated on the monolayers at 37°C and 8% CO2. At 24 hours (trial 1) and 48 hours (trial 2), MTS (Owen's solution) the PMS were added to each well at concentrations of 333 µg/ml and 25 µM respectively. The plate was returned to the incubator in the dark to develop for two hours. At two hours, 100 µl of each supernatant was transferred to a new microtiter plate and read in the ELISA reader at 490nm. Results were recorded and analyzed. Percent toxicity was calculated by subtracting the mean optical density (OD) of the drug supernatants from the mean optical density (OD) of the medium control supernatants (no drug), dividing by the OD of the medium control and multiplying by 100. (OD medium - OD drug)/(OD medium)x 100 [formula]

[5] = tested on: RH strain of Toxoplasma gondii; experiment: Toxoplasma gondii growth in MRC5 fibroblast cultures, ELISA; format: cell-based
[6] = tested on: M. intracellular ATCC 13950; experiment: MIC by standard agar dilution; format: cell-based, Mycobacterium intracellular; details: Mycobacterium, ATCC13950, 504 h, Middlebrook 7H11 agar, 3 weeks
Fasciola hepatica = experiment: In vitro culture of mature flukes
Protocol: The in vitro efficacy of nitazoxanide and desacetyl-nitazoxanide was tested against Fasciola hepatica. Mature F. hepatica were recovered from the bile ducts of 3 calf livers condemned due to fasciolosis at the Louisiana Veterinary Medical Diagnostic Laboratory at the Hardy's Meat […], Bunkie, LA. Flukes were washed in sterile saline for 1 hour and transferred to sterile saline or RPMI (pH 7.4) for an additional 3 hours. Flukes were then held in sterile RPMI-rabbit serum (50:50 v/v) or sterile RPMI (pH 7.4) overnight at 37°C with 5% CO2. In vitro culture (37°C, 5% CO2) was done according to a modification of the method of Ibarra and Jenkins ([…]. 70:655-661, 1984). […] Only flukes that had normal activity and morphology were used. […] Two control flukes were included in each replicate, […] and one in unmedicated culture media […]. Flukes were examined for the effects of drug treatment as evidenced by death, motility disturbances or morpholgic changes as compared to untreated control flukes, using a backlighted panel and a lighted 3X magnifying lens.

MRC5 fibroblasts = experiment: Toxicity on the cell monolayer in T. gondii cultures; details: 72 hours
[7] = 48 hr., Conc 0.01 µg/ml, 0.025% DMSO
[8] = 48 hr., Conc 0.1 µg/ml, 0.025% DMSO
[9] = 48 hr., Conc 1 µg/ml, 0.025% DMSO
[10] = 48 hr., Conc 10 µg/ml, 0.025% DMSO

NC[C@@H]1O[C@H](O[C@H]2[C@@H](O)[C@H](O[C@@H]3[C@@H](O)[C@H](N)C[C@H](N)[C@H]3O[C@H]3O[C@H](CO)[C@@H](O)[C@H](O)[C@H]3N)O[C@@H]2CO)[C@H](N)[C@@H](O)[C@@H]1O [Paromomycin, reference compound]
%Tox - Percent toxicity to cells by the drug (MDBKF5D2 cell monolayers [1]; cattle, 48 h, 2000 µg/ml): 39.79% | Tox/OD (MDBKF5D2 cell monolayers [1]; cattle, 48 h, 2000 µg/ml): 1.219 | Parasite - Mean parasite count/field (12 fields analyzed) (C. parvum oocysts [2]; Conc 2000 µg/ml, aqueous media): 115.75 | inhibition at 2000 µg/mL (C. parvum oocysts [2]; Cryptosporidium parvum, 48 h, Conc 2000 µg/ml, aqueous media, read-out: %Inhib - Percent inhibitation of parasite infection): 83% | inhibition at 2000 µg/mL (C. parvum oocysts [2]; Cryptosporidium parvum, concentration of 2,000 µg/ml, positive control, Examples II and III, read-out: inhibition (range over the experiments)): 51 to 83% | times less effective (than nitazoxanide) (C. parvum oocysts [2]; same experimental condition, positive control): 2,000 times | inhibition at 2000 µg/mL (C. parvum oocysts [3]; Trial 1: 24 hrs): 51% | inhibition at 2000 µg/mL (C. parvum oocysts [3]; Trial 2: 48 hrs): 74% | Mean (+ SD) Parasite Count/10 Fields (C. parvum oocysts [3]; Trial 1: 24 hrs): 482(±47.1) | Mean (+ SD) Parasite Count/10 Fields (C. parvum oocysts [3]; Trial 2: 48 hrs): 580(+33.42) | Percent Toxicity (MDBKF5D2 cell monolayers [4]; 24 h): 23.8% | Percent Toxicity (MDBKF5D2 cell monolayers [4]; 48 h): 40.8%

O=C(Nc1ncc([N+](=O)[O-])s1)c1ccccc1O [Tizoxanide, desacetyl-nitazoxanide]
concentration with significant effect (inhibition) ([5]; 72 hours): ≥ 0.6 mg/L | IC50 ([5]; Toxoplasma gondii, MRC5, 72 hours, estimated from regression analysis, read-out: 50% inhibitory concentration): 1.2 µg/mL (≈ 4.52 µM) | concentrations at which a marked inhibition of Toxoplasma growth could be observed ([5]; alteration of the parasitophorous vacuole, no marked alteration of the parasite itself): approximately 1.2 mg/L | MIC [6]: 4 µg/mL (≈ 15.1 µM) | %Tox - Percent toxicity to cells by the drug (MDBKF5D2 cell monolayers [1]; [7]): 4.36% | Score (cytotoxicity score) (MDBKF5D2 cell monolayers [1]; [7]): 0 (0.5% toxicity = 0) | Tox/OD (MDBKF5D2 cell monolayers [1]; 48 hr., Conc 0.01 µg/ml, 0.025% DMSO, OD at 490 nm): 1.721 | %Tox - Percent toxicity to cells by the drug (MDBKF5D2 cell monolayers [1]; [8]): 16.29% | Score (cytotoxicity score) (MDBKF5D2 cell monolayers [1]; [8]): 1 (6-25% toxicity = 1) | Tox/OD (MDBKF5D2 cell monolayers [1]; 48 hr., Conc 0.1 µg/ml, 0.025% DMSO, OD at 490 nm): 1.506 | %Tox - Percent toxicity to cells by the drug (MDBKF5D2 cell monolayers [1]; [9]): 4.97% | Score (cytotoxicity score) (MDBKF5D2 cell monolayers [1]; [9]): 0 (0.5% toxicity = 0) | Tox/OD (MDBKF5D2 cell monolayers [1]; 48 hr., Conc 1 µg/ml, 0.025% DMSO, OD at 490 nm): 1.710 | %Tox - Percent toxicity to cells by the drug (MDBKF5D2 cell monolayers [1]; [10]): 81.27% | Score (cytotoxicity score) (MDBKF5D2 cell monolayers [1]; [10]): 4 (76-100% toxicity =- 4) | Tox/OD (MDBKF5D2 cell monolayers [1]; 48 hr., Conc 10 µg/ml, 0.025% DMSO, OD at 490 nm): .337 | effects on flukes (death, motility disturbances) (Fasciola hepatica; 1 µg treatment, listed as D-NTZ): Some slowing of activity was noted in the 1 µg group at 42-74 hours; also recorded: only 3 active and one moribund fluke remained alive at 91 hours; also recorded: at 115 hours only one sluggish fluke remained | effects on flukes (death, motility disturbances) (Fasciola hepatica; 3 µg treatment, listed as D-NTZ): Reduced activity in some individuals was seen by 24 hours in the 5 µg and 3 µg groups with a somewhat slower onset at 3 µg; also recorded: all were dead in the 3 and 5 µg treatment wells by 50 hours except one sluggish fluke in each group | effects on flukes (death, motility disturbances) (Fasciola hepatica; 5 µg treatment, listed as D-NTZ): Reduced activity in some individuals was seen by 24 hours; also recorded: all were dead in the 3 and 5 µg treatment wells by 50 hours except one sluggish fluke in each group | effects on flukes (death, motility disturbances) (Fasciola hepatica; 10 µg treatment, listed as D-NTZ): reduced activity was noted at 1, 3 and 4 hours; also recorded: all were moribund or dead by 7 hours | effects on flukes (death, motility disturbances) (Fasciola hepatica; 25 µg treatment, listed as D-NTZ): Four of 7 flukes in the 25 µg treatment were moribund, two were active, and one was sluggish within the first hour; also recorded: all were dead except two sluggish flukes by three hours; also recorded: only one sluggish fluke remained alive after four hours | effects on flukes (death, motility disturbances) (Fasciola hepatica; 50 µg treatment): moribund or dead within one hour | effects on flukes (death, motility disturbances) (Fasciola hepatica; 100 µg treatment): moribund or dead within one hour | time to rapid fluke death (Fasciola hepatica; in vitro medication rate 10µg): 6 to 7 h | time to rapid fluke death (Fasciola hepatica; in vitro medication rate 25 µg): ≤ 4 h | time to rapid fluke death (Fasciola hepatica; in vitro medication rates of >50 µg): ≤ 1 h | Parasite - Mean parasite count/field (12 fields analyzed) (C. parvum oocysts [2]; Conc 0.01 µg/ml, 0.025% DMSO): 749.33 | Parasite - Mean parasite count/field (12 fields analyzed) (C. parvum oocysts [2]; Conc 0.1 µg/ml, 0.025% DMSO): 649.86 | Parasite - Mean parasite count/field (12 fields analyzed) (C. parvum oocysts [2]; Conc 1 µg/ml, 0.025% DMSO): 39.92 | %Inhib - Percent inhibitation of parasite infection (C. parvum oocysts [2]; Conc 1 µg/ml, 0.025% DMSO): 93.65% | Parasite - Mean parasite count/field (12 fields analyzed) (C. parvum oocysts [2]; Conc 10 µg/ml, 0.025% DMSO): 13.75 | %Inhib - Percent inhibitation of parasite infection (C. parvum oocysts [2]; Conc 10 µg/ml, 0.025% DMSO): 97.81% | inhibition at 0.01 µg/mL (C. parvum oocysts [2]; Cryptosporidium parvum, 48 h, Conc 0.01 µg/ml, 0.025% DMSO, read-out: %Inhib - Percent inhibitation of parasite infection): ≤ 0% | inhibition at 0.1 µg/mL (C. parvum oocysts [2]; Cryptosporidium parvum, 48 h, Conc 0.1 µg/ml, 0.025% DMSO, read-out: %Inhib - Percent inhibitation of parasite infection): ≤ 0% | inhibition at 1 µg/mL (C. parvum oocysts [2]; Cryptosporidium parvum, 48 h, Conc 1 µg/ml, 0.025% DMSO, read-out: %Inhib - Percent inhibitation of parasite infection): 94% | inhibition at 10 µg/mL (C. parvum oocysts [2]; Cryptosporidium parvum, 48 h, Conc 10 µg/ml, 0.025% DMSO, read-out: %Inhib - Percent inhibitation of parasite infection): 98% | concentrations with marked toxicity on the cell monolayer (MRC5 fibroblasts): ≥ 2.5 mg/L
